# Experimental data: US20200016200A1, “MODULATING CYTOTOXIC CELL LYTIC GRANULE POSITIONING TO PROMOTE DIFFUSE KILLING IN CELLULAR THERAPIES” (Baylor College of Medicine, priority 2016, published 2020)
# Entries after “also recorded” stand apart in the source; their conditions may differ.
# Tests used:
# CD19 CAR T cells = assay: Standard 4-hour 51Cr cytotoxicity assay, bystander killing; assay type: cell-based; details: for increase of bystander killing compared to DMSO control: 10:1 effector to target ratio, BV173 bystanders, Daoy-CD19 inciting targets, representative donor
# Description: FIG. 21. Bystander killing with increasing amounts of ciliobrevin D in the presence of CD19 CAR-bearing T cells. Standard 4-hour ^51Cr cytotoxicity assay of CD19 CAR T cells treated with ciliobrevin D (25, 50 and 100 μM) or DMSO control. CD19-expressing Daoy cells (Daoy-CD19, a medulloblastoma cell line engineered to express CD19) were used as inciting target cells to trigger the activation of CD19 CAR-bearing T cells. BV173 cells, a human acute lymphoblastic leukemia cell line, were used as non-susceptible bystander cells to measure the degree of collateral damage caused by non-directional degranulation.
# (§1) Similarly, compared to DMSO, ciliobrevin D-treated CD19 CAR NK cells lyse approximately 24%, 39% and 40% more bystander cells at the concentration of 12.5, 25 and 50 μM, respectively (FIG. 22). […] FIG. 23 and FIG. 24 are time-lapse images of videos of control ([…]) and ciliobrevin D-treated ([…]) CD19 CAR T cells. […] In the control group, however, lytic granules converge immediately upon interacting with the target cell and remain tightly clustered until target is killed by the CD19 CAR T cell as indicated by uptake of the SYTOX Blue viability dye.
# GD2 CAR-bearing T cells = assay: Flow cytometry-based cytotoxicity assay, 48 h, bystander killing; assay type: cell-based; details: ciliobrevin D 90 μM, vs DMSO
# Description: FIG. 23. Bystander killing with ciliobrevin D in the presence of GD2 CAR-bearing T cells. Flow cytometry-based cytotoxicity assay of GD2 CAR-bearing T cells treated with ciliobrevin D (90 μM) or DMSO control. BV173 cells were used as non-susceptible bystander cells to measure the degree of non-specific killing (Left). Daoy-CD19 cells were used as activating target cells (Right). After 48 h incubation, percent cell lysis and total cell number were measured using SYTOX Blue viability dye and flow cytometer cell counting beads, respectively. […] The non-specific lysis of BV173 cells increased after ciliobrevin D treatment while specific lysis of Daoy-CD19 cells was not affected.
# as §1
# YTS cells = assay: Standard 4-hour 51Cr cytotoxicity assay; assay type: cell-based, human; details: ciliobrevin D 100 μM vs DMSO
# Description: (§2) FIGS. 13A-13E. The effect of ciliobrevin D on degranulation and the increase of bystander killing by NK cells. Flow cytometry-based degranulation assay of NK cells treated with ciliobrevin D or DMSO as vehicle control. 721.221 cells were used as targets for YTS cells and K562 cells were used as targets for NK92 and eNK cells. DMSO or ciliobrevin D-treated NK cells were mixed with their respective target cells and co-cultured at 37° C. for 2 hours in the presence of anti-CD107a antibody, GolgiStop (BD) and analyzed using flow cytometry. Numbers in the representative flow cytometry plots indicate the percentage of CD107a positive eNK (13A), YTS (13B), or NK92 (13C) cells. Standard 4-hour 51Cr cytotoxicity assay of NK cells treated with ciliobrevin D (100 μM) or DMSO control. NK resistant Raji cells were used as innocent bystander cells. […] Bystander killing of Raji cells by YTS (13D, red) and NK92 (13E, red) cells both increased with ciliobrevin D treatment. Representative experiments from three independent experiments for YTS and NK92 cells were shown.
# (§3) Because directed degranulation with converged granules promoted killing efficiency, ciliobrevin D was used to physically prevent convergence in a cell that had received a convergence signal. It was considered that this would allow us to abrogate the killing efficiency benefit imparted by lytic granule convergence. In order to measure killing of both the target and bystander cells in a single experiment, flow cytometry-based cytotoxicity assays were performed, wherein each cell line was labeled with a unique fluorescent dye in the presence of media containing SYTOX Blue viability indicator dye. […] The viability of YTS ([…]), NK92 (FIG. 14E, 14H) and eNK (FIG. 14F, 14I) was not affected by DMSO or ciliobrevin D treatments. […] To ask if it promoted more collateral damage by NK cells 51Cr-labeled Raji cells were added (to serve as innocent bystanders) along with unlabeled 721.221 or K562 target cells. […] YTS or NK92 cells co-cultured with 51Cr-labeled Raji cells in the absence of 721.221 or K562 were unable to kill Raji cells (FIG. 14J). […] Convergence therefore serves to protect innocent bystander cells in complex cellular environments.
# (§4) Standard 51Cr-release assays were performed as previously described (Orange et al., 2011). Where indicated, 51Cr51-labeled target or “bystander” cells were mixed with unlabeled target or “bystander” cells to test the indirect lysis of targets. For ADCC, Raji cells were incubated with 20 μg/ml of rituximab in complete R10 medium for 20 min at 37° C., and washed three times before adding to eNK cells.
# (§5) Where applicable, YTS, NK92 and eNK cells were pretreated with […] ciliobrevin D (Millipore) for 30 min then washed. […]
# NK92 cells = assay: Standard 4-hour 51Cr cytotoxicity assay; assay type: cell-based, human; details: ciliobrevin D 100 μM vs DMSO
# Description: as §2, §3, §4, §5
compound,measurement,setting,value
"N#CC(C(=O)c1ccc(Cl)cc1Cl)=C1NC(=O)c2ccc(Cl)cc2N1 [ciliobrevin D, 2-(7-chloro-4-oxo-3,4-dihydroquinazolin-2(1H)-ylidene)-3-(2,4-dichlorophenyl)-3-oxopropanenitrile]",increase of bystander killing compared to DMSO control,CD19 CAR T cells; 25 μM,approximately 48%
same,increase of bystander killing compared to DMSO control,CD19 CAR T cells; 50 μM,~71%
same,increase of bystander killing compared to DMSO control,CD19 CAR T cells; 100 μM,~90%
same,non-specific lysis of BV173 cells,"CD19 CAR T cells; 25, 50 and 100 μM, each effector to target ratio, vs DMSO",dose-dependent increases
same,specific lysis of Daoy-CD19 target cells,GD2 CAR-bearing T cells; 48 h incubation,remains similar to the DMSO control; also recorded: not affected
same,decrease of total number of BV173 (bystander) cells,GD2 CAR-bearing T cells; after 48 h incubation,~20%
same,total number of Daoy-CD19 (target) cells,GD2 CAR-bearing T cells; after 48 h incubation,does not change; also recorded: remained similar to the DMSO control
same,lysis of susceptible target cells (51Cr release),YTS cells; YTS against 721.221,did not substantively alter total killing; also recorded: slightly increased
same,non-specific lysis (bystander killing) of 51Cr-labeled Raji cells,YTS cells; YTS with unlabeled 721.221 targets,more non-specific lysis; also recorded: increased
same,lysis of susceptible target cells (51Cr release),NK92 cells; NK92 against K562,did not substantively alter total killing; also recorded: not affected
same,non-specific lysis (bystander killing) of 51Cr-labeled Raji cells,NK92 cells; NK92 with unlabeled K562 targets,more non-specific lysis; also recorded: increased
